Test results published in patent US20190185518A9, “WARHEAD-CONTAINING PEPTIDOMIMETIC MACROCYCLES AS MODULATORS OF BFL-1” (AILERON Therapeutics, Inc., priority 2017, published 2019).
pKi: −log10 of the molar value. Positions of bridges follow the written chain, without caps; N, C: chain ends. Non-standard residues stand in square brackets, D forms with d. Residues, ends and D or L forms follow the SMILES beside them. Phe(4-CF3) = N[C@@H](Cc1ccc(C(F)(F)F)cc1)C(=O)O; Bip = N[C@@H](Cc1ccc(-c2ccccc2)cc1)C(=O)O; Igl = N[C@H](C(=O)O)C1Cc2ccccc2C1; hPhe = N[C@@H](CCc1ccccc1)C(=O)O; R8 = C=CCCCCCC[C@@](C)(N)C(=O)O; Cit = NC(=O)NCCC[C@H](N)C(=O)O; Chg = N[C@H](C(=O)O)C1CCCCC1; S5 = C=CCCC[C@](C)(N)C(=O)O; Aib = CC(C)(N)C(=O)O

Legend:
Mcl-1 = Mcl-1 (Homo sapiens, UniProt Q07820); experiment: Ki determination for Mcl-1 (BCL-2 family binding spectrum); settings: read-out: Ki MCL-1
Procedure, shortened: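 Competitive fluorescence polarization assay in which compounds displace a fluoresceinated peptidomimetic macrocycle tracer from Mcl-1. Affinity constants were obtained by nonlinear regression.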

Bcl-2 = Bcl-2 (Homo sapiens, UniProt P10415); experiment: Ki determination for Bcl-2 (BCL-2 family binding spectrum); settings: read-out: Ki BCL-2
From the text: To assess the binding and affinity of compounds that antagonize the interaction between a peptide and an acceptor protein, a fluorescence polarization assay (FPA) utilizing a fluoresceinated peptidomimetic macrocycle derived from a peptidomimetic precursor sequence is used, for example. The FPA technique measures the molecular orientation and mobility using polarized light and fluorescent tracer. […] A compound that antagonizes the interaction between the fluoresceinated peptidomimetic macrocycle and an acceptor protein will be detected in a competitive binding FPA experiment.
For example, putative antagonist compounds (1 nM to 1 mM) and a fluoresceinated peptidomimetic macrocycle (25 nM) are incubated with the acceptor protein (50 nM) in binding buffer (140 mM NaCl, 50 mM Tris-HCL, pH 7.4) for 30 minutes at room temperature. Antagonist binding activity is measured, for example, by fluorescence polarization on a luminescence spectrophotometer (e.g. Perkin-Elmer LS50B). Kd values may be determined by nonlinear regression analysis using, for example, Graphpad Prism software (GraphPad Software, Inc., San Diego, Calif.).

Sequence of Mcl-1 (Q07820 whole entry, species assumed): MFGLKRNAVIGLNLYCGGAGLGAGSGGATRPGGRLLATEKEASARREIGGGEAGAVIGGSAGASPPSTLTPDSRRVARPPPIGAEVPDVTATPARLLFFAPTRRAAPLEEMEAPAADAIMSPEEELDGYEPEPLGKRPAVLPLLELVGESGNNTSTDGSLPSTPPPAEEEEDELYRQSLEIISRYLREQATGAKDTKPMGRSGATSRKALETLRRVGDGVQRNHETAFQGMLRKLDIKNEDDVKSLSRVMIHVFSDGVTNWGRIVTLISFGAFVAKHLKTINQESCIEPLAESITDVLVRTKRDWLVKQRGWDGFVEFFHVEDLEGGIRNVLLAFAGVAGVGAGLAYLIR
Sequence of Bcl-2 (P10415 whole entry, species assumed): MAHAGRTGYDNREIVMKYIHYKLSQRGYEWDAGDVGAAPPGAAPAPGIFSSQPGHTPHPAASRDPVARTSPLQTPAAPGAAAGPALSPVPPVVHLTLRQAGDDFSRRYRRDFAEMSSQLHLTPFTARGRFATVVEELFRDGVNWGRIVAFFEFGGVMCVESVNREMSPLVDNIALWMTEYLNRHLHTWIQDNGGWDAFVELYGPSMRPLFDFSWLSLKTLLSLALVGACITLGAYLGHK

| SMILES | pKi (Mcl-1) | pKi (Bcl-2) |
| --- | --- | --- |
| CC[C@H](C)[C@H](NC(C)=O)C(=O)N[C@@H](Cc1c[nH]c2ccccc12)C(=O)N[C@H](C(=O)N[C@@H](C)C(=O)N[C@@H](CCC(N)=O)C(=O)N[C@@H](C)C(=O)N[C@@H](CC(C)C)C(=O)N[C@@H](CCCNC(N)=O)C(=O)N[C@]1(C)CCCCCCC=CCCC[C@@](C)(C(=O)N[C@@H](Cc2ccc(O)cc2)C(=O)N[C@@H](Cc2ccc(O)cc2)C(=O)N[C@@H](C)C(N)=O)NC(=O)[C@H](CC(N)=O)NC(=O)[C@H](Cc2ccccc2)NC(=O)[C@H](C)NC(=O)[C@H](CC(=O)O)NC(=O)CNC(=O)[C@H]([C@@H](C)CC)NC1=O)[C@@H](C)CC [compound 1655] (Ac-IWIAQAL[Cit][R8]IGDAFN[S5]YYA-NH2; staple 9-16) | 8.12 | 6.67 |
| CC[C@H](C)[C@H](NC(C)=O)C(=O)N[C@@H](Cc1c[nH]c2ccccc12)C(=O)N[C@@H](Cc1ccc(-c2ccccc2)cc1)C(=O)N[C@@H](C)C(=O)N[C@@H](CCC(N)=O)C(=O)N[C@@H](C)C(=O)N[C@@H](CC(C)C)C(=O)N[C@@H](CCCNC(=N)N)C(=O)N[C@]1(C)CCCCCCC=CCCC[C@@](C)(C(=O)N[C@@H](Cc2ccc(O)cc2)C(=O)N[C@@H](Cc2ccc(O)cc2)C(=O)N[C@@H](C)C(N)=O)NC(=O)[C@H](CC(N)=O)NC(=O)[C@H](Cc2ccccc2)NC(=O)[C@H](C)NC(=O)[C@H](CC(=O)O)NC(=O)CNC(=O)[C@H]([C@@H](C)CC)NC1=O [compound 1686] (Ac-IW[Bip]AQALR[R8]IGDAFN[S5]YYA-NH2; staple 9-16) | 7.96 | < 6.00 |
| CC[C@H](C)[C@H](NC(C)=O)C(=O)N[C@@H](Cc1c[nH]c2ccccc12)C(=O)N[C@H](C(=O)N[C@@H](C)C(=O)N[C@@H](CCC(N)=O)C(=O)N[C@@H](C)C(=O)N[C@H](C(=O)N[C@@H](CCCNC(=N)N)C(=O)N[C@]1(C)CCCCCC/C=C\CCC[C@@](C)(C(=O)N[C@@H](Cc2ccc(O)cc2)C(=O)N[C@@H](Cc2ccc(O)cc2)C(=O)N[C@@H](C)C(N)=O)NC(=O)[C@H](CC(N)=O)NC(=O)[C@H](Cc2ccccc2)NC(=O)[C@H](C)NC(=O)[C@H](CC(=O)O)NC(=O)CNC(=O)[C@H]([C@@H](C)CC)NC1=O)C1Cc2ccccc2C1)[C@@H](C)CC [compound 1693] (Ac-IWIAQA[Igl]R[R8]IGDAFN[S5]YYA-NH2; staple (Z) 9-16) |  | < 6.00 |
| CC[C@H](C)[C@H](NC(C)=O)C(=O)N[C@@H](Cc1c[nH]c2ccccc12)C(=O)N[C@H](C(=O)N[C@@H](C)C(=O)N[C@@H](CCC(N)=O)C(=O)N[C@@H](C)C(=O)N[C@@H](Cc1ccc(C(F)(F)F)cc1)C(=O)N[C@@H](CCCNC(=N)N)C(=O)N[C@]1(C)CCCCCCC=CCCC[C@@](C)(C(=O)N[C@@H](Cc2ccc(O)cc2)C(=O)N[C@@H](Cc2ccc(O)cc2)C(=O)N[C@@H](C)C(N)=O)NC(=O)[C@H](CC(N)=O)NC(=O)[C@H](Cc2ccccc2)NC(=O)[C@H](C)NC(=O)[C@H](CC(=O)O)NC(=O)CNC(=O)[C@H]([C@@H](C)CC)NC1=O)[C@@H](C)CC [compound 1694] (Ac-IWIAQA[Phe(4-CF3)]R[R8]IGDAFN[S5]YYA-NH2; staple 9-16) |  | < 6.00 |
| CC[C@H](C)[C@H](NC(C)=O)C(=O)N[C@@H](Cc1c[nH]c2ccccc12)C(=O)N[C@H](C(=O)N[C@@H](C)C(=O)NC(C)(C)C(=O)N[C@@H](C)C(=O)N[C@@H](CC(C)C)C(=O)N[C@@H](CCCNC(=N)N)C(=O)N[C@]1(C)CCCCCCC=CCCC[C@@](C)(C(=O)N[C@@H](Cc2ccc(O)cc2)C(=O)N[C@@H](Cc2ccc(O)cc2)C(=O)N[C@@H](C)C(N)=O)NC(=O)[C@H](CC(N)=O)NC(=O)[C@H](Cc2ccccc2)NC(=O)[C@H](C)NC(=O)[C@H](CC(=O)O)NC(=O)CNC(=O)[C@H]([C@@H](C)CC)NC1=O)[C@@H](C)CC [compound 1708] (Ac-IWIA[Aib]ALR[R8]IGDAFN[S5]YYA-NH2; staple 9-16) |  | 6.92 |
| CC[C@H](C)[C@H](NC(C)=O)C(=O)N[C@@H](Cc1c[nH]c2ccccc12)C(=O)N[C@H](C(=O)N[C@@H](C)C(=O)N[C@@H](CCC(N)=O)C(=O)N[C@@H](C)C(=O)N[C@@H](CC(C)C)C(=O)N[C@@H](CCCNC(=N)N)C(=O)N[C@]1(C)CCCCCCC=CCCC[C@@](C)(C(=O)N[C@@H](Cc2ccc(O)cc2)C(=O)N[C@@H](Cc2ccc(O)cc2)C(=O)N[C@@H](C)C(N)=O)NC(=O)[C@H](CC(N)=O)NC(=O)[C@H](Cc2ccccc2)NC(=O)[C@H](C)NC(=O)[C@H](CC(=O)O)NC(=O)CNC(=O)[C@H]([C@@H](C)CC)NC1=O)C1CCCCC1 [compound 1713] (Ac-IW[Chg]AQALR[R8]IGDAFN[S5]YYA-NH2; staple 9-16) | 8.34 | 7.41 |
| CC[C@H](C)[C@H](NC(C)=O)C(=O)N[C@@H](Cc1c[nH]c2ccccc12)C(=O)N[C@H](C(=O)N[C@@H](C)C(=O)N[C@@H](C)C(=O)N[C@@H](C)C(=O)N[C@@H](CC(C)C)C(=O)N[C@@H](CCCCN)C(=O)N[C@]1(C)CCCCCCC=CCCC[C@@](C)(C(=O)N[C@@H](Cc2ccc(O)cc2)C(=O)N[C@@H](Cc2ccc(O)cc2)C(=O)N[C@@H](C)C(N)=O)NC(=O)[C@H](CC(N)=O)NC(=O)[C@H](Cc2ccccc2)NC(=O)[C@H](C)NC(=O)[C@H](CC(=O)O)NC(=O)CNC(=O)[C@H]([C@@H](C)CC)NC1=O)[C@@H](C)CC [compound 1737] (Ac-IWIAAALK[R8]IGDAFN[S5]YYA-NH2; staple 9-16) |  | 7.59 |

Continued, values first:

| pKi (Mcl-1) | pKi (Bcl-2) | SMILES |
| --- | --- | --- |
|  | 6.92 | CC[C@H](C)[C@H](NC(C)=O)C(=O)N[C@@H](Cc1c[nH]c2ccccc12)C(=O)N[C@H](C(=O)N[C@@H](C)C(=O)N[C@@H](C)C(=O)N[C@@H](C)C(=O)N[C@@H](CC(C)C)C(=O)N[C@@H](CCCNC(=N)N)C(=O)N[C@]1(C)CCCCCCC=CCCC[C@@](C)(C(=O)N[C@@H](Cc2ccc(O)cc2)C(=O)N[C@@H](Cc2ccc(O)cc2)C(=O)N[C@@H](C)C(N)=O)NC(=O)[C@H](CC(N)=O)NC(=O)[C@H](Cc2ccccc2)NC(=O)[C@H](C)NC(=O)[C@H](CC(=O)O)NC(=O)[C@H](C(C)C)NC(=O)[C@H]([C@@H](C)CC)NC1=O)[C@@H](C)CC [compound 1739] (Ac-IWIAAALR[R8]IVDAFN[S5]YYA-NH2; staple 9-16) |
|  | 6.85 | CC[C@H](C)[C@H](NC(C)=O)C(=O)N[C@@H](Cc1c[nH]c2ccccc12)C(=O)N[C@H](C(=O)N[C@@H](C)C(=O)N[C@@H](C)C(=O)N[C@@H](C)C(=O)N[C@@H](CC(C)C)C(=O)N[C@@H](CCCNC(=N)N)C(=O)N[C@]1(C)CCCCCCC=CCCC[C@@](C)(C(=O)N[C@@H](Cc2ccc(O)cc2)C(=O)N[C@@H](Cc2ccc(O)cc2)C(=O)N[C@@H](C)C(N)=O)NC(=O)[C@H](CC(N)=O)NC(=O)[C@H](Cc2ccccc2)NC(=O)[C@H](C)NC(=O)[C@H](CCC(=O)O)NC(=O)CNC(=O)[C@H]([C@@H](C)CC)NC1=O)[C@@H](C)CC [compound 1740] (Ac-IWIAAALR[R8]IGEAFN[S5]YYA-NH2; staple 9-16) |
| 8.57 | 7.41 | CC[C@H](C)[C@H](NC(C)=O)C(=O)N[C@@H](Cc1c[nH]c2ccccc12)C(=O)N[C@H](C(=O)N[C@@H](C)C(=O)N[C@@H](CCC(N)=O)C(=O)N[C@@H](C)C(=O)N[C@@H](CC(C)C)C(=O)N[C@@H](CCCNC(=N)N)C(=O)N[C@]1(C)CCCCCCC=CCCC[C@@](C)(C(=O)N[C@@H](Cc2ccc(O)cc2)C(=O)N[C@@H](Cc2ccc(O)cc2)C(=O)N[C@@H](C)C(N)=O)NC(=O)[C@H](CC(N)=O)NC(=O)[C@H](CCc2ccccc2)NC(=O)[C@H](C)NC(=O)[C@H](CC(=O)O)NC(=O)CNC(=O)[C@H]([C@@H](C)CC)NC1=O)[C@@H](C)CC [compound 1743] (Ac-IWIAQALR[R8]IGDA[hPhe]N[S5]YYA-NH2; staple 9-16) |
|  | 6.90 | CC[C@H](C)[C@H](NC(C)=O)C(=O)N[C@@H](Cc1c[nH]c2ccccc12)C(=O)N[C@H](C(=O)N[C@@H](C)C(=O)N[C@@H](C)C(=O)N[C@@H](C)C(=O)N[C@@H](CC(C)C)C(=O)N[C@@H](CCCNC(=N)N)C(=O)N[C@]1(C)CCCCCCC=CCCC[C@@](C)(C(=O)N[C@@H](CC(C)C)C(=O)N[C@@H](Cc2ccc(O)cc2)C(=O)N[C@@H](C)C(N)=O)NC(=O)[C@H](CC(N)=O)NC(=O)[C@H](Cc2ccccc2)NC(=O)[C@H](C)NC(=O)[C@H](CC(=O)O)NC(=O)CNC(=O)[C@H]([C@@H](C)CC)NC1=O)[C@@H](C)CC [compound 1753] (Ac-IWIAAALR[R8]IGDAFN[S5]LYA-NH2; staple 9-16) |
|  | 6.85 | CC[C@H](C)[C@H](NC(C)=O)C(=O)N[C@@H](Cc1c[nH]c2ccccc12)C(=O)N[C@H](C(=O)N[C@@H](C)C(=O)N[C@@H](C)C(=O)N[C@@H](C)C(=O)N[C@@H](CC(C)C)C(=O)N[C@@H](CCCNC(=N)N)C(=O)N[C@]1(C)CCCCCCC=CCCC[C@@](C)(C(=O)N[C@@H](Cc2ccc(O)cc2)C(=O)N[C@@H](Cc2ccc(O)cc2)C(=O)N[C@@H](CCCNC(=N)N)C(N)=O)NC(=O)[C@H](CC(N)=O)NC(=O)[C@H](Cc2ccccc2)NC(=O)[C@H](C)NC(=O)[C@H](CC(=O)O)NC(=O)CNC(=O)[C@H]([C@@H](C)CC)NC1=O)[C@@H](C)CC [compound 1765] (Ac-IWIAAALR[R8]IGDAFN[S5]YYR-NH2; staple 9-16) |
|  | 7.66 | CC[C@H](C)[C@H](NC(C)=O)C(=O)N[C@]1(C)CCCCCCC=CCCCC2(CCCC=CCCCCCC[C@@](C)(C(=O)N[C@@H](Cc3ccc(O)cc3)C(=O)N[C@@H](Cc3ccc(O)cc3)C(=O)N[C@@H](C)C(N)=O)NC(=O)[C@H](CC(N)=O)NC(=O)[C@H](Cc3ccccc3)NC(=O)[C@H](CCC(=O)O)NC(=O)[C@H](CC(=O)O)NC(=O)CNC(=O)[C@H]([C@@H](C)CC)NC2=O)NC(=O)[C@H](CCCNC(=N)N)NC(=O)[C@H](CC(C)C)NC(=O)[C@H](C)NC(=O)[C@H](CCC(N)=O)NC(=O)[C@H](C)NC(=O)[C@H]([C@@H](C)CC)NC1=O (some centres unmarked) [compound 1782] |
